Source: patent US20240391931A1 (Bristol-Myers Squibb Company, priority 2021, published 2024)

Columns and labels:
[1] = molecular target: T1, HER2 wildtype (WT) protein (Homo sapiens, UniProt P04626); assay: HER2 signaling (pHER2 Tyr1248/total HER2 MSD) in BT474 cells; format: cell-based; settings: 1.5 hr compound, 1% FBS
T1 construct: BT474 and N87 cell lines which endogenously overexpress the HER2 wildtype (WT) protein; endogenous in cells; host or cells: BT474, N87
Procedure, shortened: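 BT474, N87 (HER2 WT) and NCI-H1781 (HER2 G776delinsVC) cells were treated for 1.5 h at 37° C in 1% FBS medium with compound at 0.0005–1.1 μM. pHER2 Tyr1248 was measured by MSD on whole-cell lysates and normalized to total HER2 as % DMSO. EC50 came from a variable-slope sigmoidal fit.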

HER2YVMA = HER2YVMA (Homo sapiens, UniProt P04626, INS775YVMA); assay: HER2 signaling (pHER2) in Hek293-HER2YVMA cells; format: cell-based; set-up: expressed in transfected cells; host or cells: HEK293 (pool), Ba/F3 (clones), BEAS2B (clones); lentiviral vector pCDH-CMV-MCS-EF1-Neo; settings: 1.5 hr compound, 1% FBS, read-out: HEKYVMA pHER2 EC50
Sequence of HER2YVMA (P04626 with tags, fused parts or gaps INS775YVMA): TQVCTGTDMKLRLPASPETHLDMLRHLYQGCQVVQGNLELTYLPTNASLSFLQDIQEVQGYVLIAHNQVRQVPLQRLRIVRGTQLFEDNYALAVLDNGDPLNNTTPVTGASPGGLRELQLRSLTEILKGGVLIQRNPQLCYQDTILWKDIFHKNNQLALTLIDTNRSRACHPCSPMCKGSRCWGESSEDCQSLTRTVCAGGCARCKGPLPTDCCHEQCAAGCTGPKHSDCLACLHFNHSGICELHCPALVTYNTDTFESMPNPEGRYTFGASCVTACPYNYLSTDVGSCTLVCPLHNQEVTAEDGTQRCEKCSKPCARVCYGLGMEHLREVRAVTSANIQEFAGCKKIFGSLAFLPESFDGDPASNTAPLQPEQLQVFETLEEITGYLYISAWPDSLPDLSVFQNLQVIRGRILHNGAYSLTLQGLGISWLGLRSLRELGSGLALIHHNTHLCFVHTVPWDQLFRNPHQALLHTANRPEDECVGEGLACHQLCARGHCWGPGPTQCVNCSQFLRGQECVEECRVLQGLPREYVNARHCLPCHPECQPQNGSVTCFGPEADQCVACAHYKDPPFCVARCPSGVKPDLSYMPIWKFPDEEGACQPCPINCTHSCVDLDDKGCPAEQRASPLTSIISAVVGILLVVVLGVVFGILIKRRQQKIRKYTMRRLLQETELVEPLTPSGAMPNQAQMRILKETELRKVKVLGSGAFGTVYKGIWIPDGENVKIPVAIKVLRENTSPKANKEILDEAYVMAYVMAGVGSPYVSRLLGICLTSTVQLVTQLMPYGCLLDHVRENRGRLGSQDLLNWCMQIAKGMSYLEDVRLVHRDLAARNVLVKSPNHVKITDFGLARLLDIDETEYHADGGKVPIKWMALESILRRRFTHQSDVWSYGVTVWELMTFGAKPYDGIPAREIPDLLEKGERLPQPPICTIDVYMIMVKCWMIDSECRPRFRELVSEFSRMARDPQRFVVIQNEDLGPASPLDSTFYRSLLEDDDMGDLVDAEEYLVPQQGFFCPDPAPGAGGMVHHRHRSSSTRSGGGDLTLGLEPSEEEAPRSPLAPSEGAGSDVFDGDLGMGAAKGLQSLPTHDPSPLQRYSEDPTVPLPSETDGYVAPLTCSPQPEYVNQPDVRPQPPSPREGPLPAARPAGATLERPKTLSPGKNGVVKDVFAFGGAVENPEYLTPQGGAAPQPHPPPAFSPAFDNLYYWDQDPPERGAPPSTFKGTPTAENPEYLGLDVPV
Procedure, shortened: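 Lentivirally transduced HER2YVMA lines (HEK293 pool; BEAS2B clone) treated 1.5 h at 37 °C in 1% FBS medium with compound at 0.0005–1.1 μM. Lysates read by MSD immunoassay for pHER2 (Tyr1248) normalized to total HER2, as % DMSO control; EC50 from variable-slope sigmoidal fit.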

T1 sequence (P04626 23-1255): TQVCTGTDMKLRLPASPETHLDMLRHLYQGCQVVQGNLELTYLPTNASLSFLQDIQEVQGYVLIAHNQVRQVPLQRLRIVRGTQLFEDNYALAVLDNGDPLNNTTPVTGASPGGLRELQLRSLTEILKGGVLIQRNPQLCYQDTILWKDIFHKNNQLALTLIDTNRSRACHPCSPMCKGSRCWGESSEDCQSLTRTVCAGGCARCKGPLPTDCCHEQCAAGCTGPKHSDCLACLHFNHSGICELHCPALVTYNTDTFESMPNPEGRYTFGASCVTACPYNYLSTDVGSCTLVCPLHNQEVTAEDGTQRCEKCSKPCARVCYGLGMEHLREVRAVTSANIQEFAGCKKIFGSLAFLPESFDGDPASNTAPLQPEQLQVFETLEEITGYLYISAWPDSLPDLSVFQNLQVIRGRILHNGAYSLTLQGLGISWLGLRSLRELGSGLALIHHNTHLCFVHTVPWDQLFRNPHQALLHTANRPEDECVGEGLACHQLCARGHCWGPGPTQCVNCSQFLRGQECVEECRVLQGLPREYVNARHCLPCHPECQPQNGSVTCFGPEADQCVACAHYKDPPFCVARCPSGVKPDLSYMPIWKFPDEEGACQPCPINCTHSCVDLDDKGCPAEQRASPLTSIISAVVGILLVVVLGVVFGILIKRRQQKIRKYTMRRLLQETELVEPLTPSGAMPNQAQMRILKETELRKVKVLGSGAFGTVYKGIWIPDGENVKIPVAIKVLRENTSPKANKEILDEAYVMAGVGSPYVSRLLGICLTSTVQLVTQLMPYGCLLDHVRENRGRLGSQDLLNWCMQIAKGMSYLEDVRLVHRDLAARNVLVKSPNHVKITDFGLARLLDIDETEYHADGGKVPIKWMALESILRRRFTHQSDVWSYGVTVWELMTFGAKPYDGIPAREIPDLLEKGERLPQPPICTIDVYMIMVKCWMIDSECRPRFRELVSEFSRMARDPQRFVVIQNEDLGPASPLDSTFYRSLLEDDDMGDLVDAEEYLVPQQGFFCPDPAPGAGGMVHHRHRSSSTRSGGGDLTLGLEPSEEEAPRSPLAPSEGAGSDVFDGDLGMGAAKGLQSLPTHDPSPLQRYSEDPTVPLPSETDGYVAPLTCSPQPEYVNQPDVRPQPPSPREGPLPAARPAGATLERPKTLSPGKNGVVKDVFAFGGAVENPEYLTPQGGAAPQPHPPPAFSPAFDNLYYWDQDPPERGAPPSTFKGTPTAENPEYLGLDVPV

EC50 [1] [µM] | EC50 (HER2YVMA) [µM] | SMILES
< 0.1 | < 0.1 | Cc1ccc(Oc2ccc(Nc3ncnc4sc5c(c34)CN(C(=O)/C=C/CN(C)C)C5)cc2Cl)cn1 [Compound 129, (E)-1-(4-((3-Chloro-4-((6-methylpyridin-3-yl)oxy)phenyl)amino)-5H-pyrrolo[3′,4′:4,5]thieno[2,3-d]pyrimidin-6(7H)-yl)-4-(dimethylamino)but-2-en-1-one]
< 0.1 | < 0.1 | Cc1ccc(Oc2ccc(Nc3ncnc4sc5c(c34)CN(C(=O)C=CCN(C)C)C5C)cc2C)cn1 (single isomer, unassigned) [Compound 169]
< 0.1 | < 0.1 | COc1ccc(Oc2ccc(Nc3ncnc4sc5c(c34)CCN(C(=O)/C=C/CN(C)C(C)(C)C)C5)cc2C)cn1 [Compound 163]
< 0.1 | 0.1 to 0.35 | Cc1ccc(Oc2ccc(Nc3ncnc4sc5c(c34)CCN(C(=O)/C=C/CN3CCO[C@@H](CO)C3)C5)cc2C)cn1 [Compound 144]
< 0.1 | < 0.1 | CCN(CC)C/C=C/C(=O)N1CCc2c(sc3ncnc(Nc4ccc(Oc5ccc(C)nc5)c(C)c4)c23)C1 [Compound 131]
< 0.1 | < 0.1 | Cc1ccc(Oc2ccc(Nc3ncnc4sc5c(c34)CCN(C(=O)/C=C/CN3C[C@H]4C[C@@H]3CC4C#N)C5)cc2C)cn1 (stereo partly shown) [Compound 120]
< 0.1 | < 0.1 | Cc1ccc(Oc2ccc(Nc3ncnc4sc5c(c34)CCN(C(=O)/C=C/CN3CC4(CCCC4)C3)C5)cc2C)cn1 [Compound 123]
< 0.1 | < 0.1 | CC[C@H](NC/C=C/C(=O)N1CCc2c(sc3ncnc(Nc4ccc(Oc5ccc(C)nc5)c(C)c4)c23)C1)C(F)(F)F [Compound 122]
< 0.1 | < 0.1 | Cc1ccc(Oc2ccc(Nc3ncnc4sc5c(c34)CCN(C(=O)/C=C/CN3CC4CCC3C4)C5)cc2C)cn1 (stereo not shown) [Compound 14]
< 0.1 | < 0.1 | COc1ccc(Oc2ccc(Nc3ncnc4sc5c(c34)C(C)CN(C(=O)C=CCN(C)C)C5)cc2C)cn1 (single isomer, unassigned) [Compound 160]
< 0.1 | < 0.1 | Cc1ccc(Oc2ccc(Nc3ncnc4sc5c(c34)CCN(C(=O)/C=C/CN3CC(C)OC(C)C3C)C5)cc2C)cn1 (stereo not shown) [Compound 117]
< 0.1 | < 0.1 | C=CC(=O)N1[C@H](C)Cc2c(sc3ncnc(Nc4ccc(Oc5ccc(C)nc5)c(C)c4)c23)[C@H]1C (racemic) [Compound 166, 1-(6,8-trans-dimethyl-4-((3-methyl-4-((6-methylpyridin-3-yl)oxy)phenyl)amino)-5,8-dihydropyrido[4′,3′:4,5]thieno[2,3-d]pyrimidin-7(6H)-yl)prop-2-en-1-one]
< 0.1 | < 0.1 | Cc1ccc(Oc2ccc(Nc3ncnc4sc5c(c34)C(C)CN(C(=O)C=CCN(C)C(C)(C)C)C5)cc2C)cn1 (single isomer, unassigned) [Compound 179]
< 0.1 | < 0.1 | Cc1ccc(Oc2ccc(Nc3ncnc4sc5c(c34)C(C)CN(C(=O)C=CCN3CCOCC3)C5)cc2C)cn1 (single isomer, unassigned) [Compound 176]
< 0.1 | < 0.1 | Cc1ccc(Oc2ccc(Nc3ncnc4sc5c(c34)C(C)CN(C(=O)C=CCN3CCOCC3)C5)cc2C)cn1 (single isomer, unassigned) [Compound 177]
< 0.1 | < 0.1 | Cc1ccc(Oc2ccc(Nc3ncnc4sc5c(c34)CCN(C(=O)/C=C/CN3CCCC(F)(CO)C3)C5)cc2C)cn1 (stereo not shown) [Compound 150]

SMILES | EC50 [1] [µM] | EC50 (HER2YVMA) [µM]
Cc1ccc(Oc2ccc(Nc3ncnc4sc5c(c34)C(C)CN(C(=O)/C=C/CN(C)C(C)(C)C)C5)cc2C)cn1 (stereo not shown) [Compound 175] | < 0.1 | < 0.1
